Assay results published in ChEMBL document CHEMBL1201862, “PubChem BioAssay data set” (2004).
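48-hour exposure; five concentrations; linearly interpolated endpoints. Abbreviation: GI50, concentration required for 50% inhibition of growth.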 Calls of active or inactive are those of the source. No stated cut-off is given here; in the data, active = GI50 up to about 1.1 µM and inactive = higher. Non-standard residues stand in square brackets, D forms with d. Residues, ends and D or L forms follow the SMILES beside them. ξ: configuration not given here. ξLac(3-iPr) = CC(C)CC(O)C(=O)O; NMeV = CN[CH](C(=O)O)C(C)C; NMeA = CN[CH](C)C(=O)O; βAla = NCCC(=O)O

Legend:
Test in all cases: growth of human tumour cells (NCI), 48 h
[1] = tested on: LXFL 529
[2] = tested on: HOP-18
[3] = tested on: BT-549
[4] = tested on: MDA-MB-231
[5] = tested on: T47D
[6] = tested on: MDA-N
[7] = tested on: PC-3
[8] = tested on: MDA-MB-435
[9] = tested on: RXF 631

Measured: GI50

Cc1cc(C)nc(NS(=O)(=O)c2ccc(NC(=O)c3cccn4c(=O)c5ccccc5nc34)cc2)n1
inactive: [1] 29.3 µM

COc1cc(/C=C/c2ccc(OC)c(OC)c2)oc(=O)c1
inactive: [2] 4.88 µM

CCCCN1CN2C(=O)C(C(=O)OCC)C(=O)c3sc4nc(SC)nc1c4c32 (configuration not stated)
inactive: [3] 16.6 µM | [4] 17.9 µM | [5] 19.7 µM | [6] 17.1 µM | [7] 19.2 µM | [8] 18.2 µM

CCOC(=O)C1=C(C)N2CCCOC2(C)C(C(=O)OC)C1c1cccc([N+](=O)[O-])c1 (configuration not stated)
inactive: [1] 45.7 µM

c1cc2c(c(-c3c4ccccc4nc4ccccc34)c1)CC1(CC2)OCCO1
inactive: [3] > 100 µM | [4] > 100 µM | [5] > 100 µM | [6] > 100 µM | [7] > 100 µM | [8] > 100 µM

CCOC(=O)c1ccc(C)c(/N=N/N(C)C)c1
inactive: [2] 4.32 µM

CCOC1=C2N=C(C(CC)c3ccc(F)cc3)N=C2C(=O)c2ccccc21 (configuration not stated)
inactive: [1] 23.9 µM

COC(=O)CC(=O)OC
inactive: [1] > 100 µM | [2] > 100 µM

CCCCNS(=O)(=O)c1n[nH]c(=O)[nH]c1=O
inactive: [3] > 100 µM | [4] > 100 µM | [5] > 100 µM | [6] > 100 µM | [7] > 100 µM | [8] > 100 µM

COc1cccc(N2C(Cl)C(=O)C2c2c[nH]c3ccccc23)c1 (configuration not stated)
inactive: [1] > 100 µM

CC(C)NC(=O)OCc1c(CO)c2c(n1C)-c1ccccc1CC2
inactive: [2] 15 µM

CC1Cc2cc(O)c(O)cc2-c2cc(O)c(O)cc2CC1C (configuration not stated)
inactive: [4] 6.71 µM | [5] 25.2 µM | [6] 3.07 µM | [7] 19.3 µM | [8] 3.16 µM

COc1ccc(CN/C=N/C(C#N)=C(\N)C#N)cc1OC
inactive: [3] 72.3 µM | [4] > 100 µM | [5] 83.6 µM | [6] > 100 µM | [7] > 100 µM | [8] > 100 µM

Cc1ccc(S(=O)(=O)NC(=N)N(C)N=O)cc1
inactive: [3] > 100 µM | [4] > 100 µM | [5] > 100 µM | [6] > 100 µM | [7] > 100 µM | [8] > 100 µM

Cc1ccc(C2COc3cc(O)c(O)cc3C2)cc1 (configuration not stated)
inactive: [2] 43.5 µM

CN(C)CC(C)(C)/C(=N\Nc1ccccc1)c1ccccc1
inactive: [1] 18.7 µM | [2] 35 µM

Cc1cccc2ns[s+]c12
inactive: [1] 37.8 µM | [2] > 100 µM

C[n+]1c2ccccc2c(NC(CS)C(=O)O)c2ccccc21 (configuration not stated)
inactive: [1] 20.4 µM | [2] 12 µM | [9] 37.2 µM

CCN1CCCC(NCc2c3ccccc3c(CNC3CCCN(CC)C3)c3ccccc23)C1 (configuration not stated)
inactive: [2] 5.92 µM

NC1=NC(=O)[C@H](Cc2c[nH]c3ccccc23)N1C(=O)OCc1ccccc1
inactive: [3] 38.5 µM | [4] > 100 µM | [6] > 100 µM | [7] 46 µM | [8] 56.9 µM

CCC(C)C1NC(=O)C2CCCN2C(=O)C(CC(C)C)OC(=O)CCNC(=O)C(C)N(C)C(=O)C(C(C)C)N(C)C1=O (configuration not stated) (cyclo([ξLac(3-iPr)]PI[NMeV][NMeA][βAla]); configuration not given here)
inactive: [3] > 26.1 µM | [4] 6.24 µM | [5] 4.68 µM | [6] 2.61 µM | [7] 1.79 µM | [8] 2.43 µM

CCCCS(=N)(=O)CC[C@H](N)C(=O)O (some centres not stated) [BUTHIONINE SULFOXIME]
inactive: [3] > 5000 µM | [4] > 5000 µM | [5] > 5000 µM | [2] > 5000 µM | [6] > 10000 µM | [7] > 5000 µM | [8] > 5000 µM

CCCCCCCCCCCCCCCCSCC(COC)COP(=O)([O-])OCC[N+](C)(C)C (configuration not stated) [ILMOFOSINE]
inactive: [2] 4.12 µM
